These results are taken from paper PMC5768343, “A natural inhibitor of kidney-type glutaminase: a withanolide from Physalis pubescens with potent anti-tumor activity” (Oncotarget, 2017).

In general, IC50 refers to the concentration at which inhibition is half-maximal. High values mean weaker potency in that assay, low ones greater potency in that assay.

Assay [1] addresses T1, catalytic domain of human KGA (cKGA) (Homo sapiens, UniProt O94925).
T1 sequence (O94925 221-553): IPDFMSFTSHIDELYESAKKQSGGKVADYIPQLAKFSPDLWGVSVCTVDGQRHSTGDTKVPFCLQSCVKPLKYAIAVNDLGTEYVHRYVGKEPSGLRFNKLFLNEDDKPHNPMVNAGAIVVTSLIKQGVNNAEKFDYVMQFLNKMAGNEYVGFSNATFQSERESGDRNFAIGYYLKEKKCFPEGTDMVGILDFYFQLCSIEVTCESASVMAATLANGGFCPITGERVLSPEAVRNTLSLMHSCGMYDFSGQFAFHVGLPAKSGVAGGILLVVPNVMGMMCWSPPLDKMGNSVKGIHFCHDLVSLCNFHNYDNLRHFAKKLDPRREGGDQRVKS
Briefly: In vitro KGA enzyme inhibition assay (GDH-coupled, NADH absorbance 340 nm). The assay is classed as biochemical. How it is done:
To validate the finding of the virtual ligand screening, the catalytic domain of human KGA (cKGA) was expressed by recombinant technique. […] Enzyme kinetics has been measured to explore the mode of inhibition.
Specific details were referenced to our previous work. Briefly, The catalytical domain of human KGA (cKGA) encoding amino acids 221–553 was cloned into pET26b vector with C-terminal His tag. The cKGA was then expressed in E.coli BL21 (DE3)-RIL-Condon plus. Cultures were grown in LB media contain 35 mg/L kanamycin at 37°C to OD value in 0.6–0.8, then induced at 16°C with 0.4 mM IPTG for 16 h. Cultures were harvested by centrifugation at 3500 g for 8 minutes. Cell pellets were sonicated in a buffer containing 50 mM Hepes (pH 7.5), 500 mM NaCl, 5mM imidazole, […], 1 mM DTT, 0.1% Triton X-100, and final 1 mM PMSF (Sigma-Aldrich USA). The cKGA were purified by affinity chromatography by Ni-NTA agarose, and further purified by size exclusion chromatography (Superdex 200, GE-health care, USA). The purified cKGA was stored in buffer containing 20 mM Hepes (pH 7.5), 200 mM NaCl, 10% glycerol and 3 mM DTT.
The KGA profiling assays were to evaluate the compound-dependent inhibition of KGA in vitro catalytic assay. Specific details were referenced to our previous work. Briefly, the KGA catalyzed the glutamine into glutamate plus ammonium, and then glutamate plus NAD converted to α-ketoglutarate and NADH by the catalysis of GDH. The elevated absorbance at 340 nm with the form of NADH was recorded using a microplate reader. The enzymatic activity was measured in 100 μL system. Mixed buffer containing 0.15 M K2HPO4, 50 mM Tris-Acetate pH 8.6, 0.1 mg/mL bovine serum albumin (BSA), 0.25 mM EDTA, 1 mM DTT, 4 mM NAD were prepared. Then, 10 mM glutamine, 1 unit of glutamate dehydrogenase (GDH) and inhibitor were added in the mix. Final concentration of 1 μM cKGA was added to initiate the reaction. Generation of NADH was monitored by 340 nm absorbance every minute for 20 minutes at 37°C. The IC50 values were calculated by fitted regression equation using the-log plot (GraphPad Prism). Each value was on behalf of the means ± SD of three independent tests, each with three replicates.

In a further assay the target is T2, intracellular KGA (Homo sapiens, UniProt O94925).
T2 construct: endogenous in cells; host or cells: SW1990
T2 sequence (O94925 55-669): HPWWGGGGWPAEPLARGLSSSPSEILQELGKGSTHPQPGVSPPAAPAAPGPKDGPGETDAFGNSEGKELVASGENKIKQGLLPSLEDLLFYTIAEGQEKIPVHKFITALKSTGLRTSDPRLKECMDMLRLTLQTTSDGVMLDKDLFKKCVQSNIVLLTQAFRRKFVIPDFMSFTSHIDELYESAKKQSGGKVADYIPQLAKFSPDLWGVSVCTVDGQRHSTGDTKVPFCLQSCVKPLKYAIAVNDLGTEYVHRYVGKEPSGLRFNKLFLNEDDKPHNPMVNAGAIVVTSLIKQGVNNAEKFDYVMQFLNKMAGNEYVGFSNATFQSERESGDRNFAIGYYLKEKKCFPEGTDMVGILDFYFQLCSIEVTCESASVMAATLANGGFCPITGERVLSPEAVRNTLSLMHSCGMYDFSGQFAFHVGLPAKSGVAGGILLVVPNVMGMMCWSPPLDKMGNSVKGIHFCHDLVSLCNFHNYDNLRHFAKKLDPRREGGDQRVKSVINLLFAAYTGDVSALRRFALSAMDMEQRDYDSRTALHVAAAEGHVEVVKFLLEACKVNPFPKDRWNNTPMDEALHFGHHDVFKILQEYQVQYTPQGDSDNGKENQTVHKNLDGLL
Briefly: Cellular thermal shift assay (CETSA) in intact SW1990 cells. The format is cell-based. Particulars: 10 μM, 4 hours, 48°C without compound. The text has this:
To further investigate the interaction of the compound with KGA, microscale thermophoresis method (MST) was used to assay the binding affinity between physapubescin K and KGA. This technology can quantify protein-protein or protein-small molecule interactions with high sensitivity through detecting fluorescent changes of molecules during thermophoresis. […] However, it was of vital importance to verify whether it could bind with the intracellular KGA. The cellular thermal shift assay (CETSA), which based on the biophysical principle of ligand-induced thermal stabilization of target protein [25], was thus conducted to investigate its affinity with intracellular KGA. […] As shown in Figure 4B and 4C, physapubescin K increased the thermal stability of KGA in intact cells from tolerate temperature of 48°C to temperature of 50°C.
The ability of compounds to interact with, and thereby stabilize the target in intact cells, was analyzed essentially as described by Alshareef A et al.. Briefly, cells cultured in 10-cm tissue culture dishes at about 90% confluence were treated with media containing DMSO or 10 μM physapubescin K for 4 hours. After treatment, cells were detached with cell scraper, collected by centrifugation and subsequently resuspended in PBS. The cell suspension was aliquoted into seven PCR tubes and heated for 3 minutes to 40, 42, 44, 46, 48, 50 or 52°C. […]

As to `CO[C@H]1O[C@@H]([C@@H](C)[C@H]2C[C@H](OC(C)=O)[C@H]3[C@@H]4C[C@H]5O[C@]56[C@@H](O)C=CC(=O)[C@]6(C)[C@H]4CC[C@@]32C)C[C@]2(C)O[C@]12C` [physapubescin K], in assay [1] (1 μM cKGA, 10 mM glutamine, 37°C), the midpoint of inhibition, the IC50, lay at 520 ± 60 nM. In addition, in assay [1] (5 μM compound, after substrate concentration was increased from 10 mM to 40 mM (0 at 10 mM)), the “catalytic rate of cKGA” value was 0.02 ∆OD/min. Moreover, the “inhibition of the activity of KGA” value in assay [1] (5 μM compound, substrate concentration 10 mM) was “completely inhibit”. In addition, the mode of inhibition result in assay [1] (higher concentration, increases in Km for glutamine) is listed as “competitive”; in assay [1] (low concentration, decrease in Vmax, little effect on Km for glutamine) it was “non-competitive”. For the same compound, the reversibility of inhibition entry in assay [1] (saturated inhibition assay, 5 μM) is recorded as “reversible”. For the same compound, the “thermal stability of KGA, tolerate temperature” value at intracellular KGA came out at 50 °C.
